According to ChEMBL document CHEMBL1201862, “PubChem BioAssay data set” (2004):
One block for each compound: values may come before it. The source made the active and inactive calls.

Experiments:
[1] = target: Prothrombin (Homo sapiens, UniProt P00734); assay: Thrombin 1536 HTS Dose Response Confirmation. [Related pubchem assays: 1046 (Thrombin 1536 HTS; hits were confirmed in this assay)]; assay type: functional
[2] = target: DNA dC->dU-editing enzyme APOBEC-3A (Homo sapiens, UniProt P31941); assay: Dose Response confirmation of small molecule APOBEC3A DNA Deaminase Inhibitors via a fluorescence-based single-stranded DNA deaminase assay. [Related pubchem assays (depositor defined):AID493011, AID493024]; assay type: functional
[3] = target: DNA dC->dU-editing enzyme APOBEC-3G (Homo sapiens, UniProt Q9HC16); assay type: functional;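 note: Dose-response counterscreen measuring inhibition of APOBEC3G DNA deaminase activity, run while confirming APOBEC3A inhibitors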
[4] = P. falciparum late gametocyte killing, dose response, luminescence (AID 1117278); assay type: functional, cell-based;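 note: gametocytes exposed to compound for 24 hours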
[5] = Jurkat T cell cytotoxicity, dose response, cytotoxicity control for P. falciparum gametocyte viability project, luminescence (AID 1117277); assay type: functional, cell-based;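 note: potency reflects loss of cellular ATP meaning fewer viable cells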
[6] = target: T1, Coagulation factor XII (Homo sapiens, UniProt P00748); assay: FXIIa inhibitor potency, concentration-response, biochemical (AID 716); assay type: functional
T1 sequence (P00748 whole entry): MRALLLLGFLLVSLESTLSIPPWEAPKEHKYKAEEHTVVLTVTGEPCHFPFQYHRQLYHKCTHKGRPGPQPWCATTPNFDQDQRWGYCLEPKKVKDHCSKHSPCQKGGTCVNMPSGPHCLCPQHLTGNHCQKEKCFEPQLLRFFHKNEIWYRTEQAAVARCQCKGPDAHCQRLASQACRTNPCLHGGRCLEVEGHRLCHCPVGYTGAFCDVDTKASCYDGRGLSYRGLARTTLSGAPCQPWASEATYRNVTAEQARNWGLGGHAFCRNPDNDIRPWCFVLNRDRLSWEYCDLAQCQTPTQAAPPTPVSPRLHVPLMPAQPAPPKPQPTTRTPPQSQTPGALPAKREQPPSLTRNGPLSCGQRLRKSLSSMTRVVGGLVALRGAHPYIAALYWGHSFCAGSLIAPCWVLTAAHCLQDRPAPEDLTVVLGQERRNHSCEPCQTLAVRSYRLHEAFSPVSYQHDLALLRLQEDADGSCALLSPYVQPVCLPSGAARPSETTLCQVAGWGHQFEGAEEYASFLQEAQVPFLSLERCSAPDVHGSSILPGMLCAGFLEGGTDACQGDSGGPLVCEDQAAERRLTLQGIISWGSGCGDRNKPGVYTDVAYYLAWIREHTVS

[7] = P. falciparum 3D7-ScDHODH growth inhibitors, dose response, SYBR Green, dry powder samples (AID 1159570); assay type: functional, cell-based;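 note: parasite growth measured after 72 hours of compound exposure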
[8] = P. falciparum Dd2 growth inhibitors, dose response, SYBR Green, cherry-picked samples (AID 1159567); assay type: functional, cell-based
[9] = P. falciparum Dd2 growth inhibitors, dose response, SYBR Green, dry powder samples (AID 1159566); assay type: functional, cell-based;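 note: potency for growth inhibition with lower SYBR green DNA signal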
[10] = P. falciparum ATP4 D1247Y mutant growth inhibitors, dose response, NITD609-resistant line, SYBR Green, dry powder (AID 1159571); assay type: functional, cell-based;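 note: parasites synchronized at ring stage by sorbitol before testing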
[11] = target: Melanin-concentrating hormone receptor 1 (Homo sapiens, UniProt Q99705); assay: Fluorescence-based counterscreen for antagonists of the G-protein coupled receptor 7 (GPR7): cell-based high throughput dose response assay to identify antagonists of the melanin-concentrating hormone receptor 1 (MCHR1).; assay type: functional
Chain of Melanin-concentrating hormone receptor 1 (Q99705 whole entry): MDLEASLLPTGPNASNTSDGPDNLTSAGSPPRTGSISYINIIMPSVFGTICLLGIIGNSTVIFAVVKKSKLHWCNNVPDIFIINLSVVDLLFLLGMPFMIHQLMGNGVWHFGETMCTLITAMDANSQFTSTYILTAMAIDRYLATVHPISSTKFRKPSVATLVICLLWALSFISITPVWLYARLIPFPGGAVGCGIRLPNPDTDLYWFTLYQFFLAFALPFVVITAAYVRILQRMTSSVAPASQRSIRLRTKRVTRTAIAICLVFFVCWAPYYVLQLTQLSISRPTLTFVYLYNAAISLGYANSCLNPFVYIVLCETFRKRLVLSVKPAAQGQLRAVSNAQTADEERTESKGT

Chain of DNA dC->dU-editing enzyme APOBEC-3G (Q9HC16 whole entry): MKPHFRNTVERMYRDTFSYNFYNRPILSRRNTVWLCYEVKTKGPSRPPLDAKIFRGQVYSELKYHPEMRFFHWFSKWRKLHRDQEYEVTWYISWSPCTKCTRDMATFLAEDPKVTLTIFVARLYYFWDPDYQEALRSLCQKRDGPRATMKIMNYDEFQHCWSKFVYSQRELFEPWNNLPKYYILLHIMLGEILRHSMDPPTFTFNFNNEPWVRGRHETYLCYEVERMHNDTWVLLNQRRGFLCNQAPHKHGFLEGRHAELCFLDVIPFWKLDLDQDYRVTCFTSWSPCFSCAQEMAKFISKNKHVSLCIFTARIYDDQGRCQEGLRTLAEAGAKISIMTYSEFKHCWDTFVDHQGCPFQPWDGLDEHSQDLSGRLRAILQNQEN
Chain of DNA dC->dU-editing enzyme APOBEC-3A (P31941 whole entry): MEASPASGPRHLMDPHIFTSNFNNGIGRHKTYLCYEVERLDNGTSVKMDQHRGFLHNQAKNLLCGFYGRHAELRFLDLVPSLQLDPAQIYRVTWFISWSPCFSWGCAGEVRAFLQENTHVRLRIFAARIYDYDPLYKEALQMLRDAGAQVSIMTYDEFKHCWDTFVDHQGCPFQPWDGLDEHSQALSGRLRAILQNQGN

SMILES: CCOC(=O)/C(CCCN(CC)CC)=N\O
IC50 [2]: 1.35 µM (active)
IC50 [3]: 1.26 µM (active)

SMILES: CCN1CCN(c2ccc(S(=O)(=O)N3CCOCC3)cc2NC(=O)C(C)Oc2ccc(Cl)cc2)CC1 (stereo unspecified)
IC50 [2]: 9.56 µM (active)
IC50 [3]: 14.7 µM (active)

SMILES: O=C(COC(=O)c1cncc(Br)c1)NC1CCCCCC1
IC50 [4]: > 109 µM (inactive)
IC50 [5]: > 83.3 µM (inactive)

SMILES: COc1ccc(NC(=O)CS(=O)(=O)c2ccccc2)cc1
IC50 [4]: > 109 µM (inactive)
IC50 [5]: > 83.2 µM (inactive)

SMILES: Nn1c(SCC(=O)Nc2ccc3c(c2)OCCO3)nnc(CCC(=O)O)c1=O
IC50 [2]: 9.11 µM (active)
IC50 [3]: 8.47 µM (active)

SMILES: COc1ccc(C#Cc2ccc3c(c2)O[C@@H](CN(C)S(=O)(=O)c2ccccc2F)[C@@H](C)CN([C@@H](C)CO)S3(=O)=O)cc1
AC50 [7]: 1.71 µM (active)
AC50 [8]: 2.65 µM (active)
AC50 [9]: 1.42 µM (active)
AC50 [10]: 1.93 µM (active)

SMILES: Cc1cc([N+](=O)[O-])cc(C)c1OCC(=O)N/N=C/c1ccc(OC(=O)c2ccccc2)cc1
IC50 [11]: > 43.8 µM (not active)

SMILES: O=C(CCC1COc2ccccc2O1)NCc1ccco1 (stereo unspecified)
IC50 [6]: > 50 µM (inactive)

Results, then the compound that gave them:

IC50 [1]: > 50 µM (not active)
SMILES: O=C(COc1cc(Cl)c(Cl)cc1Cl)N1CCN(c2ccccn2)CC1

IC50 [6]: > 50 µM (inactive)
SMILES: O=C(c1ccco1)N1CCN(S(=O)(=O)c2ccc(Oc3ccccc3)cc2)CC1

IC50 [1]: > 50 µM (not active)
SMILES: CCOC(=O)C(CC)(CCC(=O)OC)c1csc(Nc2ccccc2O)n1 (stereo unspecified)

IC50 [1]: > 50 µM (not active)
SMILES: Cc1c(C(=O)N2CCC(C(N)=O)CC2)sc(N)c1C#N

IC50 [6]: > 50 µM (inactive)
SMILES: COc1ccc(-n2c(Cc3cccs3)nnc2SCC(=O)Nc2ccc3c(c2)OCCO3)cc1
